Measurements as given in patent US12534436B2, “Disubstituted adamantyl derivative or pharmaceutically acceptable salt thereof, and pharmaceutical composition for suppressing cancer growth comprising same as active ingredient” (ONECUREGEN CO., LTD., priority 2020, dated 2026).

How the values were obtained:
[1] = system: CCD-34Lu normal lung fibroblasts; assay: Cell viability by methylene blue colorimetric assay, normal cells CCD-34Lu; format: cell-based; settings: Homo sapiens, Fibroblast; methylene blue assay (FIG. 1B); read-out: GI50, growth of normal cells CCD-34Lu
Protocol: Among the newly synthesized adamantyl compounds, it was evaluated how compound 21c (LW1564, Compound 21-3), FIG. 1A) affected proliferation suppression of various cancer cells. Human breast cancer cells (MCF7), human cervical cancer cells (HeLa), human colorectal cancer cells (HCT116, HCT15, LoVo, SW480, SW620 and WiDr), human fibrosarcoma cells (HT1080), human gastric cancer cells (NCI-N87, NUGC3 and SNU484), human liver cancer cells (HepG2, HT17, Huh7, SHJ1 and SK-Hep1), human lung cancer cells (A549 and H1299), human pancreatic cancer cells (AsPC1 and MIA-PaCa2) and normal lung fibroblasts (CCD-34Lu and WI-38) were purchased from the American Type Culture Collection (Manassas, Virginia, USA) or KRIBB Cell Line Bank (Daejeon). For cell culture, cells were cultured in a DMEM medium (Gibco, Grand Island, New York, USA) supplemented with 5% (v/v) fetal bovine serum (WelGENE, Daegu, Korea) and 100 U/ml penicillin and 100 μg/ml streptomycin (Gibco). Cells were maintained at 37° C. in a humidified incubator with 5% CO2, and hypoxia and a multi-gas incubator (Sanyo, Osaka, Japan) was adjusted to 1% O2, 94% N2 and 5% CO2. Cell viability was determined by methylene blue colorimetric assay as described in the “Chou, T. C. […] The dye was eluted with 0.1% HCl (v/v) and quantified at 600 nm on a Molecular Devices EMax (Molecular Devices, CA, USA). […]

HIF-1α = assay: Western blot of HIF-1α accumulation in HepG2 cells; format: cell-based, human
Complex IV = assay: Mitochondrial respiration assay, complex IV (ascorbate/TMPD); format: cell-based, human; settings: HepG2 cells (FIG. 4D)
Protocol: Compounds that suppress mitochondrial respiration promote degradation of HIF-1α by increasing cellular oxygen content. Accordingly, it was investigated whether LW1564 (compound 21-3) affected mitochondrial respiration by measuring the oxygen consumption rate (OCR). Oxygen consumption was measured using an Oxytherm Clark-type electrode system (Hansatech, Norfolk, UK) (Chou, T. C. Theoretical basis, experimental design, and computerized simulation of synergism and antagonism in drug combination studies. Pharmacol. Rev. 58, 621-681 (2006)). HepG2 cells (2×10^7) were cultured with 2 μM LW1564 (compound 21-3) for 6 hours, collected, and then OCR was measured at 37° C. for 5 minutes with a thermoregulated controlled circulating system. For […] studies, digitonin-permeabilised HepG2 cells (2×10^7) were read on a detection device containing 2 ml of respiratory buffer (0.25 M sucrose, 2 mM KH2PO4, 5 mM MgCl2, 1 mM EDTA, 1 mM ADP, 20 mM MOPS, pH 7.4). The following substrates, which provide electrons to the components in the ETC, were then added: 5 mM sodium pyruvate, 5 mM sodium malate, 5 mM sodium succinate, 5 mM L-ascorbic acid and 0.2 mM N,N,N,N-tetra methyl-p-phenylenediamine (TMPD). Complex I, III and IV inhibitors (rotenone, antimycin A and KCN, respectively) were added to a final concentration of 1 μM. […]

AMPK signaling = assay: Western blot of AMPK/mTOR signaling in HepG2 cells; format: cell-based, human
HepG2 cells = assay: HepG2 cell proliferation at different glucose concentrations; format: cell-based, human; settings: low glucose (3 mM) versus high glucose (25 mM) medium (FIG. 5C)
Protocol: The glycolytic function is activated in many cancer cells. Accordingly, it was investigated whether LW1564 (compound 21-3) affected cancer cell proliferation according to glucose concentration. […] Next, in order to investigate the combined effect of LW1564 (compound 21-3), […] on the proliferation of HepG2 cells, Combination Index (CI) and isobologram analysis were performed. The CI value quantitatively represents the correlation between two drugs through GI50 analysis indicating the cell proliferation suppression concentration, and synergistic, additive and antagonistic effects are defined as CI<1, CI=1 and CI>1.

HepG2 xenografted tumors = assay: HepG2 xenograft mouse model; format: in vivo, mice
Description: In the HepG2 xenograft mouse model, the efficacy of LW1564 (compound 21-3) on tumor proliferation was investigated. All animal experiments were approved and performed according to the guidelines of the Institutional Animal Care and Use Committee of the Korea Research Institute of Bioscience & Biotechnology (Daejeon, Korea). Specific pathogen-free female nude mice (6 weeks old) were inoculated with HepG2 cells (1×10^7) subcutaneously on the right flank. When tumor volumes reached 100 to 150 mm^3, mice were randomly assigned to vehicle and LW1564 (compound 21-3) treatment groups (n=6). LW1564 (compound 21-3) (10 mg/kg) was administered intraperitoneally daily for 2 weeks. The tumor size was measured using a microcalliper, and the tumor volume was calculated using a standard volume: length×width^2×0.5. Significant differences between the two groups were determined by Student's t-test.

Which results are given for `COc1cc2c(cc1OC)CN(C(=O)C13CC4CC(C1)CC(c1ccc(OCC(=O)N5CCN(Cc6ccc(C(F)(F)F)cc6)CC5)cc1)(C4)C3)CC2` [Compound 21c, 2-(4-(3-(6,7-Dimethoxy-1,2,3,4-tetrahydroisoquinoline-2-carbonyl)adamantan-1-yl)phenoxy)-1-(4-(4-(trifluoromethyl)benzyl)piperazin-1-yl) ethanone]?
GI50 [1]: > 20 µM; HIF-1α protein amount in the presence of cobalt chloride (HIF-1α; Western blot, cobalt chloride (FIG. 2B)): did not affect HIF-la protein amount; accumulation of HIF-1α (HIF-1α; hypoxic conditions (FIG. 2B)): suppressed the accumulation of HIF-1α in a concentration-dependent manner; oxygen consumption rate in the presence of ascorbate/TMPD (Complex IV): did not affect the oxygen consumption rate; phosphorylation of mTOR (AMPK signaling; concentration-dependent (FIG. 5A)): suppressed phosphorylation of mTOR; phosphorylation of AMPK and ACC (AMPK signaling; western blot (FIG. 5A)): promoted phosphorylation of AMPK and its downstream protein, Acetyl-CoA carboxylase (ACC); cell proliferation suppression according to glucose concentration (HepG2 cells): stronger cell proliferation suppression efficacy in cells in a medium with a low glucose concentration (3 mM); weight of the tumors removed from the mice (HepG2 xenografted tumors; 10 mg/kg intraperitoneally daily for 2 weeks (FIG. 6 middle)): reduced; reduction in tumor size compared to the control group (HepG2 xenografted tumors; 10 mg/kg intraperitoneally daily for 2 weeks, female nude mice (FIG. 6 left)): 67%
